The conditions of data set [1]: cited from earlier work.
Data set [2] can be described thus: rapid test for determination of the particle surface charge with standard gelatins. In kind it is physicochemical. The note with it: rapid test at pH 4.5, standard type A (IEP 9.5) and type B (IEP 3.5) gelatins, 200 bloom. How it is done:
In a first rapid test it is determined what charge the precipitated particles have. […] If the particles are, for example, negatively charged, a gelatin is picked which is positively charged under the given pH conditions. This rapid test for the determination of the particle charge has the advantages that it can be carried out without a great outlay in terms of apparatus and time. A time-consuming and inaccurate zeta potential measurement can thus be dispensed with entirely.
At the same dose of the pharmaceutical substance, in the case of the gelatin which is unsuitable in its state of charge a colloidal system will either not form or immediately become unstable or the pharmaceutical substance will flocculate. If the resulting particles are negatively charged, they are stabilized rather by the gelatin solution of Type A, which is positively charged at a pH of 6, than by the solution containing Type B gelatin; in contrast, in this case Type B either will form no colloidal system or the system will immediately destabilize. The flocculation of the particles can be monitored e.g. via a simple turbidity measurement.
Under identical test conditions, the standard type A gelatin (IEP 9.5/200 bloom) yields a briefly stable nanosol.

The conditions of data set [3]: cited from earlier work. This is another data set of the same source.

As to `CC(C)Cc1ccc(C(C)C(=O)O)cc1` (racemic) [ibuprofen, 2-(4-isobutylphenyl)propionic acid], the “tmax (time to blood level maximum)” value in data set [1] (conventional ibuprofen) is 1 to 2 h. The “time until therapeutic concentrations are achieved” value in data set [1] (in 2 of 8 subjects investigated) is reported as “more than 4 hours”.

For the molecule `CC(C(=O)O)c1cccc(C(=O)c2ccccc2)c1` (racemic) [ketoprofen, 2-(3-benzoylphenyl)propionic acid], in data set [2], the “surface charge of the particles” value is “negative surface charge”. Further, the pKa (as a rule, the negative logarithm of the acid dissociation constant) in data set [3] is 5.3.

Source of the values: patent US5560924A, “Medicament containing a 2-arylpropionic acid derivative in nanosol form and its preparation” (priority 1994, dated 1996).
